# Test results: patent US7022719B2, “Preventing and reversing the formation of advance glycosylation endproducts” (Alteon, Inc., priority 1995, dated 2006)
# “And” between values parts separate entries of the source, which are not always exact repeats. Equal values may be shown once. Read-outs that look alike come from different tables or passages of the source.
# How the values were obtained:
# [1] = test system: AGE-BSA crosslinked to collagen; experiment: Cross-link Breaking Assay (sandwich enzyme immunoassay); type: biochemical; settings: for Breaking Anti-AGE: anti-AGE antibody; for Breaking Anti-BSA: anti-BSA antibody
# Method: The present invention also involves a novel sandwich enzyme immunoassay used to ascertain the ability of test compounds to “break” or reverse already formed advanced glycosylation endproducts by detecting the breaking of AGE (Advanced glycosylation endproduct) moieties from AGE-crosslinked protein. This assay comprises: • a) incubation of AGE-modified bovine serum albumin (AGE BSA) on collagen-coated wells of microtiter plates for a period of 2–6 hours' at a temperature of 37° C.; • b) washing of the wells with PBS-Tween; • c) application of the test compounds to the washed wells of step b; • d) incubation of the test compounds applied to the washed wells for an additional 12–24 hours at a temperature of about 37° C.; and • e) detection of the AGE-breaking using an antibody raised against AGE-ribonuclease or cross-link breaking with an antibody against BSA.
# In order to ascertain the ability of the compounds of the instant invention to “break” or reverse already formed advanced glycosylation endproducts, a novel sandwich enzyme immunoassay was developed which detects breaking of AGE (Advanced glycosylation endproduct) moieties from AGE-crosslinked protein. The assay utilizes collagen-coated 96 well microtiter plates that are obtained commercially. […] Following an incubation period of 16 hours (37° C.) cross-link-breaking is detected using an antibody raised against AGE-ribonuclease or with an antibody against BSA. […] Details of the assay are as follows:
# Methods Preparation of Solutions and Buffers • 1. AGE-BSA stock solutions were prepared as follows. Sodium phosphate buffer (0.4 M) was prepared by dissolving 6 grams of monobasic sodium phosphate in 100 ml of distilled water, 7 grams of dibasic sodium phosphate (0.4 M) in 100 ml of distilled water and adjusting the pH of the dibasic solution to 7.4 with the monobasic solution. Sodium azide (0.02 grams) was added per 100 ml volume to inhibit bacterial growth. The BSA solution was prepared as follows: 400 mg of Type V BSA (bovine serum albumin) was added for each ml of sodium phosphate buffer (above). A 400 mM glucose solution was prepared by dissolving 7.2 grams of dextrose in 100 ml of sodium phosphate buffer (above). The BSA and glucose solutions were mixed 1:1 and incubated at 37° C. for 12 weeks. The pH of the incubation mixture was monitored weekly and adjusted to pH 7.4 if necessary. After 12 weeks, the AGE-BSA solution was dialyzed against PBS for 48 hours with four buffer changes, each at a 1:500 ratio of solution to dialysis buffer. Protein concentration was determined by the micro-Lowry method. The AGE-BSA stock solution was aliquoted and stored at −20° C. […] Working solutions for crosslinking and breaking studies were prepared as follows. Test compounds were dissolved in PBS and the pH was adjusted to pH 7.4 if necessary. AGE-BSA stock solution was diluted in PBS to measure maximum crosslinking and in the inhibitor solution for testing inhibitory activity of compounds. The concentration of AGE-BSA necessary to achieve the optimum sensitivity was determined by initial titration of each lot of AGE-BSA. • 3. Wash buffer (“PBS-Tween”) was, prepared as follows. PBS was prepared by dissolving the following salts in one liter of distilled water: NaCl, 8 grams; KC1, 0.2 gram, KH2PO4. […] Tween-20 was added to a final concentration of 0.05% (vol/vol). • 4. Substrates for detection of secondary antibody binding were prepared by diluting the HRP substrate buffer 1:10 in distilled water and mixing with ABTS chromogen 1:50 just prior to use. Assay Procedures • 1. Biocoat plates were blocked with 300 μl of “Superbloc”. Plates were blocked for one hour at room temperature and were washed with PBS-Tween three times with the Dynatech platewasher before addition of test reagents. • 2. Each experiment was set up in the following manner. The first three wells of the Biocoat plate were used for the reagent blank.
# tail tendon collagen = experiment: CNBr peptide maps of tail tendon collagen from diabetic rats; type: biochemical, rat; settings: tail tendon collagen of rats diabetic for 32 weeks, treated before cyanogen bromide digestion
# cross-linked AGE-BSA = experiment: Breaking of AGE-BSA polymer gel (SDS-PAGE); type: biochemical; settings: 10 mm, overnight at 37° C.
# Method: BSA and glucose solutions (100 ml each) were mixed in the one liter Coming sterile flask, screw-capped tight and incubated at 56° C. without shaking. The bottle was opened once a week to remove aliquots for testing. Reaction was continued for 9 weeks when AGE-BSA polymer formation was observed.
# Pieces of AGE-BSA gel was washed with PBS until no more protein was leached in the supernatant, blotted dry with paper towels. About 50 mg of the washed gel was incubated either with PBS or 10 mm 3-(2-phenyl-2-oxoethyl)thiazolium bromide (ALT 766) overnight at 37° C. The supernatants were analyzed by SDS-PAGE and stained with coommassie blue.
# [2] = test system: cross-linking of glycated bovine serum albumin (AGE-BSA) to rat tail tendon collagen; experiment: Cross-linking Inhibition Assay; settings: for IC50: inhibition of AGE-BSA cross-linking to collagen-coated plate
# Method: The following method was used to evaluate the ability of the compounds of the present invention to inhibit the cross-linking of glycated bovine serum albumin (AGE-BSA) to the rat tail tendon collagen-coated 96-well plate.
# The blocking solution was removed from the wells by, washing the plate twice with PBS-'Tween 20 solution (0.05% Tween 20) using a NUNq-multiprobe or Dynatech ELISA-plate washer. Cross-linking of AGE-BSA (1 to 10 mg per well depending on the batch of AGE-BSA) to rat tail tendon collagen coated plate was performed with and without the testing ‘compound dissolved in PBS buffer at pH 7.4 at the desired concentrations by the, addition of 50 μl each of the AGE-BSA diluted in PBS or in the solution of test compound at 37° C. for 4 hours. Unbrowned BSA in PBS buffer with or without testing compound were added to the separate wells as the blanks. The un-cross-linked AGE-BSA was then removed by washing the wells three times with PBS-Tween buffer. The amount of AGE-BSA cross-linked to the tail tendon collagen-coated plate was then quantitated using a polyclonal antibody raised against AGE-RNase. After a one-hour incubation period, AGE antibody was removed by washing 4 times with PBS-Tween.
# The bound AGE antibody was then detected with the addition of horseradish peroxidase-conjugated secondary antibody—goat anti-rabbit immunoglobulin and incubation for 30 minutes. […] The reaction was allowed for an additional 15 minutes and the absorbance was read at 410 nm in a Dynatech plate reader.
# [3] = test system: IgG crosslinked to circulating red blood cells; experiment: RBC-IgG Assay in streptozotocin-induced diabetic rats; type: in vivo, rat; settings: diabetic rats dosed orally at 10 mg/kg body weight; 19 days
# Method: The test compounds are administered to the test animals either orally or intraperitoneally, and the blood samples are collected are tested at various times, e.g. 4, 7 or 19 days, after administration to assess efficacy.
# Blood is collected from the rats in heparinized tubes and spun at 2000×g for 10 minutes, and the plasma carefully removed. Then, about 5 ml of PBS per ml blood is added, gently mixed, and then spun again. The supernatant is then removed by aspiration. The wash is then repeated two more times. Then, 0.2 to 0.3 ml of packed RBC is withdrawn from the bottom of the tube, using a pipette, and added to the PBS to make a 1 to 10 dilution. This dilution is then further diluted 1 to 25 and 1 to 50 in PBS. • B. Assay Set Up. • 1. Warm Superbloc to 37° C. • 2. Take a plate of Multiscreen-HA, 0.45 u. Cellulose ester membrane-sealed 96 well plate (Millipore MARAS45). • 3. Wet the wells with 100 μl of PBS. • 4. Add 300 μl of superblock to each well and incubate at 37° C. for one hour. • 5. Place the plate on the Millititer Vacuum holder, turn on the vacuum and press the plate down once for tight hold. The liquids in the wells will be suctioned off. Wash the wells with 300 μl of PBS-Tween 0.05%. • 6. Turn off the vacuum and add 100 μl of PBS to each well. • 7. […] Read OD of the solution collected in the Coming plate on Dynatech Plate reader Sample filter 1 and Ref. filter 4. • 17. […]
# [4] = test system: aortic wall protein cross-linking; settings: diabetic rats; cited from earlier work
# [5] = test system: immunoglobulin trapping in the kidney; settings: in vivo; cited from earlier work
# [6] = test system: glomerular basement membrane thickness; settings: streptozotocin-diabetic rat model; cited from earlier work
# red blood cells = settings: in vivo; cited from earlier work
# [7] = detection with anti-BSA antibody, read-out: IC50 (mM) Anti-BSA
smiles,measurement,setting,value
O=C(C[n+]1ccsc1)c1ccccc1.[Br-] [3-(2-phenyl-2-oxoethyl) thiazolium bromide],release of BSA from pre-formed AGE-mediated AGE-BSA/collagen complexes,"[1]; AGE-BSA reacted with unmodified, native collagen",concentration-dependent release of BSA
same,Breaking Anti-AGE,[1]; concentration not given,73%
same,Breaking Anti-BSA,[1]; concentration not given,98%
same,IC50,"[1]; detection with anti-AGE antibody, read-out: IC50 (mM) Anti-AGE",0.02 mM
same,IC50,[1]; [7],0.014 mM
same,electrophoresis of CNBr-digested collagen after treatment,tail tendon collagen,"indistinguishable from untreated, non-diabetic (control) collagen"
same,"breaking of cross-linked AGE-BSA (SDS-PAGE, FIG. 2)",cross-linked AGE-BSA,breaking of cross-linked AGE-BSA
same,IC50,[2],11100 µM
Cc1c(CCO)sc[n+]1Cc1ccccc1[N+](=O)[O-].[Br-] [3-(2′-nitrobenzyl)-4-methyl-5-(2′-hydroxyethyl)-thiazolium bromide],Breaking Anti-AGE,[1]; at 10 mM,11%
same,Breaking Anti-BSA,[1]; at 10 mM,13%
same,melting point,,215 to 216 °C
"COC(=O)C[n+]1csc(C)c1C.[Br-] [3-(2-methoxy-2-oxoethyl)-4,5-dimethylthiazolium bromide]",Breaking Anti-AGE,[1]; at 30 mM,63%
same,Breaking Anti-BSA,[1]; at 30 mM,47%
same,melting point,,184 to 185 °C (dec.)
same,IC50,[2],480 µM
C=Cc1sc[n+](CC(=O)c2ccccc2)c1C.[Br-] [3-(2-phenyl-2-oxoethyl)-4-methyl-5-vinyl-thiazolium bromide],Breaking Anti-AGE,[1]; at 1 mM,62%
same,Breaking Anti-BSA,[1]; at 1 mM,82%
same,IC50,[1]; [7],0.1 mM
same,melting point,,176 to 177 °C
CCCCN(CCCC)C(=O)C[n+]1csc(CCO)c1C.[Br-] [3-(2-Dibutylamino-2-oxoethyl]-4-methyl-5-(2′-hydroxyethyl)-thiazolium bromide],Breaking Anti-AGE,[1]; at 10 mM,25%
same,Breaking Anti-BSA,[1]; at 10 mM,38%
same,melting point,,78 to 80 °C
same,Relative Cross-link Inhibition (at 10 mM),[2],0.8% (10 mm)
Cc1c(CCO)sc[n+]1CC(=O)c1ccc2ccccc2c1.[Br-] [3-(2-(2′-naphthyl)-2-oxoethyl]-4-methyl-5-(2′-hydroxyethyl)-thiazolium bromide],Breaking Anti-AGE,[1]; at 10 mM,52%
same,Breaking Anti-BSA,[1]; at 10 mM,61%
same,Percent Inhibition (RBC-IgG),[3],40 ± 24 @ 19 days %
same,Relative Cross-link Inhibition (at 10 mM),[2],61%
COc1cccc(C[n+]2csc(CCO)c2C)c1.[Cl-] [3-(3′-methoxybenzyl)-4-methyl-5-(2′-hydroxyethyl)-thiazolium chloride],Breaking Anti-AGE,[1]; at 10 mM,4% and 14%
same,Breaking Anti-BSA,[1]; at 10 mM,19% and 25%
same,melting point,,135 to 136 °C
CC(C)(C)C(=O)C[n+]1ccsc1.[Br-] [3-(2-tert-butyl-2-oxoethyl)-thiazolium bromide],Breaking Anti-AGE,[1]; at 10 mM,28%
same,Breaking Anti-BSA,[1]; at 10 mM,37%
same,melting point,,211 to 212 °C
N=C(N)NN [aminoguanidine],aortic wall protein cross-linking,[4],diminishes
same,immunoglobulin trapping in the kidney,[5],reduction
same,increased glomerular basement membrane thickness,[6],prevented
same,diabetes-induced changes in the deformability of red blood cells,red blood cells,prevent
C#CC[n+]1csc(C)c1C.[Br-],melting point,,198 to 200 °C
